Tests used:
ApoE/LDLR−/− mice = test: Example 3 first part: MRI assessment of endothelium-dependent vasodilatation (FMD in FA, Ach in AA), young mice; assay type: in vivo
Protocol: Mice were randomly assigned to one of four experimental groups: control (untreated group) and three groups treated with vitamin K2 at a dose of 0.05, 0.5, and 5 mg/kg b.w./day, respectively. End-point measurements were performed at the age of 10-16 weeks.
Magnetic resonance imaging (MRI) experiments were performed using a 9.4T scanner (BioSpec 94/20 USR, Bruker, Germany) located in the Department of Magnetic Resonance Imaging, Institute of Nuclear Physics, Polish Academy of Sciences in Krakow. During the experiment, mice were anaesthetized using isoflurane (Aerrane, Baxter Sp. z o. o., Poland, 1.7 vol %) in an oxygen and air (1:2) mixture and imaged in the supine position. Activity of the heart, respiration, and body temperature (maintained at 37° C. using circulating warm water) were monitored using a Monitoring and Gating System (SA Inc., Stony Brook, N.Y., USA).
Endothelial function was assessed based on vascular responses to acetylcholine (Ach) administration in brachiocephalic artery (BCA), left common carotid artery (LCA) (FIGS. 6 A and B) and abdominal aorta (AA) (FIG. 6C) as well as to responses to increase in flow (flow-mediated dilatation, FMD) in femoral artery (FA) (FIG. 6D) as described in Bar A, Skorka T, Jasinski K, Sternak M, Bartel Z, Tyrankiewicz U, et al. Retrospectively-gated MRI for in vivo assessment of endothelium-dependent vasodilatation and endothelial permeability in murine models of endothelial dysfunction. NMR Biomed 2016; 29(8):1088.; Sternak M, Bar A, Adamski M G, Mohaissen T, Marczyk B, Kieronska A, et al. The Deletion of Endothelial Sodium Channel α (αENaC) Impairs Endothelium-Dependent Vasodilation and Endothelial Barrier Integrity in Endotoxemia in Vivo. Front Pharmacol 2018; 9:178. doi:10.3389/fphar.2018.00178.; and Bar A, Olkowicz M, Tyrankiewicz U, Kus E, Jasinski K, Smolenski R T, et al. Functional and Biochemical Endothelial Profiling In Vivo in a Murine Model of Endothelial Dysfunction; Comparison of Effects of 1-Methylnicotinamide and Angiotensin-converting Enzyme Inhibitor. Front Pharmacol 2017; 8:183. doi:10.3389/fphar.2017.00183.).
Vasomotor response was examined by comparing two time-resolved 3D images of the vessels prior to and 25 minutes after intraperitoneal Ach administration (Sigma-Aldrich, Poznan Poland: 50 μl, 16.6 mg/kg), as well as prior to and 5 minutes after vessel occlusion. Images were acquired using the cine IntraGate™ FLASH 3D sequence, reconstructed with the IntraGate 1.2.b.2 macro (Bruker). End-diastolic volumes of vessels were analyzed using ImageJ software 1.46r (NIH Bethesda, Md., USA) and scripts written in Matlab (MathWorks, Natick, Mass., USA). Imaging parameters included the following: repetition time (TR)—6.4 ms, echo time (TE)—1.4 ms, field of view (FOV)—30×30×5 mm3, matrix size—256×256×30, flip angle (FA)—30°, and number of accumulations (NA)—15, reconstructed to 7 cardiac frames. Total scan time was 10 minutes.

[1] = mouse, in vivo
[2] = test system: endothelial nitric oxide synthase (eNOS)-dependent nitric oxide (NO) production; test: Example 3: endothelial NO production in ex vivo aorta by EPR; details: 0.05 mg/kg b.w./day, vs untreated age-matched mice
From the text: For measurements of endothelial nitric oxide synthase (eNOS)-dependent nitric oxide (NO) production, EPR spin-trapping with diethyldithiocarbamic acid sodium salt (DETC) was used ex vivo, as described in Przyborowski K, Proniewski B, Czarny J, Smeda M, Sitek B, Zakrzewska A, et al. Vascular Nitric Oxide-Superoxide Balance and Thrombus Formation after Acute Exercise. Med Sci Sport Exerc 2018:1. doi:10.1249/MSS.0000000000001589, with minor modifications. Isolated aorta cleared from surrounding tissue was opened longitudinally and preincubated with 10 μM L-NIL (N6-(1-Iminoethyl)-lysine, hydrochloride) in Krebs-HEPES buffer for 30 minutes at 37° C. in a well of a 48-well plate. Next, 250 μL of Fe(DETC)2 colloid was added and aorta was stimulated with calcium ionophore A23187 (the final concentration was 1 μM) and subsequently, incubated for 90 minutes at 37° C. Finally, aorta was weighed and frozen in liquid nitrogen (suspended in fresh buffer) into the middle of a 400 μL column of Krebs-Hepes buffer and stored at −80° C. until measured. EPR spectra were obtained using an X-band EPR spectrometer (EMX Plus, Bruker, Germany), equipped with a rectangular resonator cavity H102. Signals were quantified by measuring the total amplitude of the NO—Fe(DETC)2 after correction of baseline. The quantitative results of NO production assessed by EPR were expressed in AU/mg of tissue.

[3] = 0.05 mg/kg b.w./day, eight weeks
[4] = 0.05 mg/kg b.w./day, four weeks, 15-week-old mice

CC(C)=CCC/C(C)=C/CC/C(C)=C/CC/C(C)=C/CC/C(C)=C/CC/C(C)=C/CC/C(C)=C/CC1=C(C)C(=O)c2ccccc2C1=O [MK-7, menaquinone-7]
Ach response in AA, volume change (ApoE/LDLR−/− mice; [3]): −0.65%
FMD in FA, volume change (ApoE/LDLR−/− mice; [3]): 28.34%
Ach response in AA, volume change (ApoE/LDLR−/− mice; [4]): −1.59%
FMD in FA, volume change (ApoE/LDLR−/− mice; [4]): 33.26%
endothelial function (FMD-FA and ACH-AA) (ApoE/LDLR−/− mice; 0.05 mg/kg b.w./day, two weeks): not sufficient to improve endothelial function
Ach response in AA, volume change (ApoE/LDLR−/− mice; 0.5 mg/kg b.w./day, two weeks): 1.52%
FMD in FA, volume change (ApoE/LDLR−/− mice; 0.5 mg/kg b.w./day, two weeks): 28.57%
Ach response in AA, volume change (ApoE/LDLR−/− mice; 5 mg/kg b.w./day, two weeks): 0.16%
FMD in FA, volume change (ApoE/LDLR−/− mice; 5 mg/kg b.w./day, two weeks): 26.55%
improvement in endothelial function compared with low dose for 4 weeks (ApoE/LDLR−/− mice; 0.5 and 5 mg/kg b.w./day, four weeks): not superior
lipid profile, liver enzymes concentration, blood cell count [1]: did not affect
nitric oxide production in ex vivo aorta by EPR [2]: increased

From patent US20200289434A1, “RAPIDLY IMPROVING ENDOTHELIAL FUNCTION, REDUCING ARTERIAL STIFFNESS AND REVERSING CALCIFICATION OF BLOOD VESSELS BY ADMINISTERING VITAMIN K” (KAYDENCE PHARMA AS, priority 2019, published 2020)
